Results as given in a melting point compilation (Tetko et al.; mined from patent text by program, amines drawn as free bases though some values may be those of a salt).

| melting point [°C] | Structure (SMILES) |
| --- | --- |
| 205 to 207 | CC(C)(C)CC(=O)c1c(-c2ccc3cc(O)ccc3c2)oc2ccccc12 |
| 150 | CNc1cc(Oc2ccc(Cl)cc2Cn2cncn2)ccc1[N+](=O)[O-] |
| 135 to 139 | COc1ccc(-c2csc(NC(=O)COc3ccc(Cl)cc3Cl)n2)cc1 |
| 82 | CC(C)(C)c1cc2c(c(C(C)(C)C)c1O)CCS2 |
| 148 to 155 | O=C(O)COc1cccc(Cn2cc(C3c4ccccc4C=Cc4ccccc43)c(=S)[nH]c2=O)c1 |
| 197 to 202 | CCCCCC(C)N(Cc1ccnc2ccccc12)C(Nc1ccc(OC)cc1OC)=C1C(=O)OC(C)(C)OC1=O (centres undefined) |
| 113 to 114 | CC[C@H](C)C(OCc1ccccc1F)[C@H]1[C@H]([N+](=O)[O-])[C@H](c2ccsc2)N[C@@H]1C(=O)NCCC(=O)O (some centres undefined) |
| 132 to 134 | Cc1c(-c2ccccc2)oc2c(CN=[N+]=[N-])cccc2c1=O |
| 42 to 43 | O=C(c1ccc(F)cc1)c1ccc(OC(F)(F)F)cc1 |
| 158 to 160 | c1ccc(-c2cn3c4c(sc3n2)CCCC4)cc1 |
| 177 to 179 | C=CC(=O)NC(=O)NCCS(=O)(=O)C=C |
| 65 to 69 | CCOC(=O)c1cnc2nc(S(=O)(=O)Cl)nn2c1C |
| 44 to 45 | O=C(NCCc1ccc(F)cc1)OCC1CCCCC1 |
| 126 to 127 | O=C1c2ccccc2C(=O)N1CCCS(=O)(=O)c1ccccc1 |
| 162 to 164 | CN(C)C=Nc1nc(=O)n(C(=O)OCC(C)(C)C)cc1F |
| 92 to 94 | COc1ccc(S(=O)(=O)N[C@@H](C(=O)OCc2ccccc2)C(C)C)cc1 |
| 145 to 146 | CCCCc1nn(-c2cc([N+](=O)[O-])ccc2C(F)(F)F)c(=O)n1Cc1ccc(-c2ccccc2S(=O)(=O)NC(C)(C)C)cc1F |
| 209 to 212 | O=S1(=O)NC2CCCN2c2ccc(Oc3ccc(Cc4nnn[nH]4)cc3)cc21 (centres undefined) |
| 193 to 194 | CCCOc1ccc(-c2ncc(C#N)cn2)cc1 |

| melting point [°C] | Structure (SMILES) |
| --- | --- |
| 171 to 173 | O=C(O)[C@H]1C[C@@H](CP(=O)(O)O)c2ccccc2N1 (relative stereo) |
| 227 to 229 | COc1ccc(-c2c(Cl)c(CN3C(=O)CCC3=O)nc3sc4c(c23)CC(C)(C)C(O)C4)cc1 (centres undefined) |
| 129 to 131 | CC(=O)Oc1ccc(C(C)C)c(NC(=O)CN2CCN(CCSc3nc4ccccc4o3)CC2)c1C(C)C |
| 100 to 120 | CC(NC(=O)Cc1cc(F)cc(F)c1)C(=O)NC1C(=O)NC(c2cccnc2)c2ccccc21 (centres undefined) |
| 64 to 65 | CC(C)[C@H]1COC(=O)N1C(=O)[C@H](C)CC(=O)OC(C)(C)C |
| 186 to 188 | O=C1CSCC(=O)NCCOCCN1 |
| 141 to 143 | COc1ccc2cc(-c3noc4cc(OC)ccc34)ccc2c1 |
| 207 to 209 | CCOC(=O)c1cn(-c2nc(NC)c(F)cc2F)c2c(Cl)c(F)c(F)cc2c1=O |
| 71 to 78 | CCCN(CCC)CC1CCCCN1CCNC(=O)N1c2ccccc2C(=O)Nc2cccc(Cl)c21 (centres undefined) |
| 152 to 156 | CCOC=C(C=O)c1ccc(Br)cc1 |
| 110 to 112 | O=C(O)CCn1c(=O)n(CCCCN2CCC(OC(c3ccccc3)c3ccccc3)CC2)c(=O)c2ccccc21 |
| 196 to 199 | CC(C)(O)Cn1cnc2c(Cl)nc3ccccc3c21 |
| 140 | O=c1[nH]c(=O)n(C2CC(F)C(CO)O2)cc1C#CI (centres undefined) |
| 150 to 151 | CCOC(=O)C1=C(C)NC(CCN(C)C)=C(C(=O)OCC)C1c1ccccc1/C=C/C(=O)OC(C)(C)C (centres undefined) |
| 127 | COc1ccc(COc2cccc(N)c2N)cc1 |
| 194 | Cn1nc(N)c(C#N)c1N |
| 115 to 116 | CCOC(=O)N1CCN(c2c(-c3ccccc3)sc3ccccc23)CC1 |
| 207 to 209 | COc1cc2c(cc1OC)C1Cc3cc4c(cc3CC(=O)N1CC2)OCO4 (centres undefined) |
| 128 to 129 | Cc1cccc(OCC(F)(F)F)c1NC(=O)CCl |

| Structure (SMILES) | melting point [°C] |
| --- | --- |
| CCOC(=O)CN(SN(C)C(=O)Oc1cccc2c1OC(C)(C)C2)c1ccccc1 | 92 to 93 |
